Experimental data reported in PMC11324046, “Second-generation piperazine derivatives as promising radiation countermeasures” (RSC Medicinal Chemistry, 2024).
Where two headings read alike, the source gives them in different places.

Legend:
[1] = WST-1 proliferation assay, MOLT-4; assay type: cell-based; conditions: human, MOLT-4 cells (acute lymphoblastic leukemia), vs 0.1% DMSO control = 100%, mean ± standard deviation
Procedure: (§1) A thorough analysis of antiproliferative activity was performed across various cell culture types representing different histotypes: leukemia (Jurkat, MOLT-4), lung adenocarcinoma (A549), colorectal adenocarcinoma (HT-29), pancreatic carcinoma (PANC-1), breast adenocarcinoma (MCF-7), osteosarcoma (SAOS-2), and one non-cancerous cell line (fetal lung fibroblasts MRC-5). The cell lines were exposed to the newly synthesized compounds at a concentration of 100 μM for 48 h in a single-dose treatment. Changes in cell proliferation compared to the vehicle 0.1% dimethyl sulfoxide (DMSO) control were determined using the WST-1 assay, which is based on mitochondrial dehydrogenase metabolic activities. […] The overall cytotoxic activity of each compound was expressed as growth percent (GP) – the mean of the proliferation of all cell lines treated with the same compound.
(§2) Selected human tumor and non-tumor cell lines Jurkat (acute T-cell leukemia), MOLT-4 (acute lymphoblastic leukemia), A549 (lung carcinoma), HT-29 (colorectal adenocarcinoma), PANC-1 (pancreas epithelioid carcinoma), MCF-7 (breast adenocarcinoma), SAOS-2 (osteosarcoma) and MRC-5 (normal lung fibroblasts) were purchased from either American Type Culture Collection (ATCC; VA, USA) or Sigma-Aldrich (St. Louis, MO, USA) and cultured according to the provider's culture method guidelines. All cell lines were maintained at 37 °C in a humidified 5% carbon dioxide and 95% air incubator. Cells in the maximum range of either 10 passages for the adherent cell lines (A549, HT-29, PANC-1, MCF-7, SAOS-2, and MRC-5), or 20 passages for suspension cell lines (Jurkat, MOLT-4,) and in an exponential growth phase were used for this study. Screening of the antiproliferative effect and growth percent calculation were conducted as follows: each cell line was seeded at previously established optimal density (1–50 × 10^3 cells per well) in a 96-well plate (TPP, Trasadingen, Switzerland) and cells were allowed to settle overnight. Cells were treated for 48 h with compounds at a final concentration of 100 μM. At the end of the cultivation period, the WST-1 proliferation assay (Roche, Basel, Switzerland) was performed according to the manufacturer's protocol. The absorbance was measured at 440 nm using a Tecan Spark multimode microplate reader (Tecan, Mannedorf, Switzerland). Each value is the mean of three independent experiments and represents the percentage of proliferation (100% cell proliferation for 0.1% DMSO mock-treated control cells). The GP value was calculated for each compound tested. GP represents the mean of the percentage proliferation decrease of all cell lines treated with the same compound.

[2] = WST-1 proliferation assay, MCF-7; assay type: cell-based; conditions: human, MCF-7 cells (breast adenocarcinoma), vs 0.1% DMSO control = 100%, mean ± standard deviation
Procedure: as §1, §2

PBMCs = assay: in vitro; conditions: 48 h; for Optimal non-toxic concentration (PBMC viability not below 100% at 0.05 significance level and higher than 90%): male, human
Procedure: (§3) To represent the overall inhibitory activity of each compound, viability was calculated as the mean of at least three independent measurements. The purpose was to determine the optimal non-toxic concentration for subsequent use in radioprotection tests.
(§4) Whole blood from a healthy donor was diluted 1 : 1 with Dulbecco's phosphate buffered saline (Sigma-Aldrich, St. Louis, MO, USA). The diluted blood was slowly and carefully pipetted onto an equal volume of Histopaque®-1077 (Sigma-Aldrich, St. Louis, MO, USA). The entire process was carried out at room temperature. Subsequently, centrifugation was performed at 700 × g with the slowest acceleration and deceleration for 20 min at 20 °C. The resulting PBMCs ring was aspirated and centrifuged at 450 × g for 10 min at 20 °C with normal acceleration and deceleration. The cells were washed twice with RPMI 1640 medium with GlutaMAX (Gibco by Thermo Fisher Scientific, Waltham, MA, USA). After the second wash and centrifugation, the cells were diluted with cultivation medium RPMI 1640 with GlutaMAX supplemented with 20% inactivated fetal bovine serum (both Gibco by Thermo Fisher Scientific, Waltham, MA, USA) and 1% antibiotic solution of penicillin, 10 000 IU ml^−1 and streptomycin, 10 mg ml^−1 (Sigma-Aldrich, St. Louis, MO, USA). At the end, the cells were counted using Türk's solution.
(§5) PBMCs were plated into 96-well plates at a cell density of approximately 5 × 10^4 cells per well in a volume of 100 μl. Cells were treated with tested compounds in concentrations of 10, 20, 50, 100, 200, 500, and 1000 μM to determine the optimal non-toxic concentration for each. Cells were incubated for 48 h in a humidified atmosphere with 5% CO2 at 37 °C. 20 μl of MTS – CellTiter 96® AQueous One Solution Cell Proliferation Assay (Promega, Madison, WI, USA) was added to each well 4 h before spectrometric analysis. Cell viability was then determined by measuring absorbance at 490 nm using the Synergy H1 instrument by BioTek. The absorbance of the cell-free culture medium was used as a blank and subtracted from the absorbance readings obtained during the experiment. The viability of untreated control cells was set as 100%.

in vitro = conditions: male, human
Procedure: as §3, §4, §5

MOLT-4 cells = assay: Annexin V/PI flow cytometry viability of irradiated MOLT-4 cells; assay type: cell-based, human; conditions: 2 Gy; for viability at 100 µM / viability at 200 µM: Homo sapiens, 2 h pretreatment, 24 h
Procedure: Consequently, we investigated whether the pre-application of these substances can augment the survival of MOLT-4 cells after irradiation exposure. The radioprotective investigation utilized a leukemia MOLT-4 cell model of hematopoietic origin with flow cytometric quantification of cell viability via annexin V/propidium iodide staining.
In the following step, at 24 h after irradiation, MOLT-4 cell viability and cell death were determined by flow cytometry using an Alexa Fluor® 488 annexin V/Dead Cell Apoptosis kit (Life Technologies, Grand Island, NY, USA) following the manufacturer's instructions. The Alexa Fluor®488 annexin V/Dead Cell Apoptosis kit employs the property of Alexa Fluor®488 conjugated to annexin V to bind to phosphatidylserine in the presence of Ca^2+; and the ability of propidium iodide to enter cells with damaged cell membranes and bind to DNA. For each sample, a minimum of 20 000 events were acquired using a CytoFLEX LX flow cytometer (Beckman Coulter, Miami, FL, USA). List mode data were analyzed using Kaluza Analysis 2.1 software (Beckman Coulter, Miami, FL, USA).

[3] = WST-1 proliferation assay, SAOS-2; assay type: cell-based; conditions: human, SAOS-2 cells (osteosarcoma), vs 0.1% DMSO control = 100%, mean ± standard deviation
Procedure: as §1, §2

[4] = MOLT-4, light or radiation study, annexin V/PI negative cells, read-out: Viability rate of MOLT-4 cells relative to 2 Gy irradiation alone (100%)
[5] = MOLT-4, representative histogram Fig. 5A (2 Gy alone 26 %), read-out: Viable (annexin V/PI negative) MOLT-4 cells, compound + 2 Gy
[6] = MOLT-4, annexin V/PI negative cells, read-out: Viable MOLT-4 cells relative to 2 Gy radiation alone (100%)
[7] = MOLT-4, representative histogram Fig. 6A (2 Gy alone 27 %), read-out: Viable (annexin V/PI negative) MOLT-4 cells, compound + 2 Gy

OCCN1CCN(CC(O)COc2cccc(Cl)c2)CC1 (stereo not shown) [Compound 6, 1-(4-(2-Hydroxyethyl)piperazin-1-yl)-3-(3-chlorophenoxy)propan-2-ol]
viability at 48 h, 100 µM [1]: 89 ± 16% | viability at 48 h, 100 µM [2]: 86 ± 12% | Optimal non-toxic concentration (PBMC viability not below 100% at 0.05 significance level and higher than 90%) (PBMCs): 500 µM | viability at 48 h, 10 µM (in vitro): 94 ± 12% | viability at 48 h, 20 µM (in vitro): 96 ± 5% | viability at 48 h, 50 µM (in vitro): 99 ± 4% | viability at 48 h, 100 µM (in vitro): 99 ± 7% | viability at 48 h, 200 µM (in vitro): 96 ± 6% | viability at 48 h, 500 µM (in vitro): 94 ± 7% | viability at 48 h, 1000 µM (in vitro): 51 ± 4% | viability at 100 µM (MOLT-4 cells; [4]): 135% | viability at 100 µM (MOLT-4 cells; [5]): 37% | viability at 200 µM (MOLT-4 cells; [6]): 137% | viability at 200 µM (MOLT-4 cells; [7]): 39% | viability at 48 h, 100 µM [3]: 120 ± 26%

OCCN1CCN(CC(O)COc2ccc(F)cc2)CC1 (stereo not shown) [Compound 4, 1-(4-(2-Hydroxyethyl)piperazin-1-yl)-3-(4-fluorophenoxy)propan-2-ol]
viability at 48 h, 100 µM [1]: 102 ± 16% | viability at 48 h, 100 µM [2]: 102 ± 5% | Optimal non-toxic concentration (PBMC viability not below 100% at 0.05 significance level and higher than 90%) (PBMCs): 1000 µM | viability at 48 h, 10 µM (in vitro): 104 ± 18% | viability at 48 h, 20 µM (in vitro): 103 ± 26% | viability at 48 h, 50 µM (in vitro): 112 ± 30% | viability at 48 h, 100 µM (in vitro): 107 ± 30% | viability at 48 h, 200 µM (in vitro): 110 ± 33% | viability at 48 h, 500 µM (in vitro): 110 ± 28% | viability at 48 h, 1000 µM (in vitro): 105 ± 10% | viability at 48 h, 2000 µM (in vitro): 53 ± 5% | viability at 48 h, 5000 µM (in vitro): 39 ± 5% | viability at 100 µM (MOLT-4 cells; [4]): 143% | viability at 100 µM (MOLT-4 cells; [5]): 35% | viability at 200 µM (MOLT-4 cells; [6]): 145% | viability at 200 µM (MOLT-4 cells; [7]): 37% | viability at 48 h, 100 µM [3]: 102 ± 6%

COc1ccc(OCC(O)CN2CCN(CCO)CC2)c([N+](=O)[O-])c1 (stereo not shown) [Compound 2, 1-(4-(2-Hydroxyethyl)piperazin-1-yl)-3-(4-methoxy-2-nitrophenoxy)propan-2-ol]
viability at 48 h, 100 µM [1]: 90 ± 7% | viability at 48 h, 100 µM [2]: 97 ± 8% | Optimal non-toxic concentration (PBMC viability not below 100% at 0.05 significance level and higher than 90%) (PBMCs): 500 µM | viability at 48 h, 10 µM (in vitro): 102 ± 12% | viability at 48 h, 20 µM (in vitro): 100 ± 11% | viability at 48 h, 50 µM (in vitro): 99 ± 6% | viability at 48 h, 100 µM (in vitro): 98 ± 8% | viability at 48 h, 200 µM (in vitro): 99 ± 11% | viability at 48 h, 500 µM (in vitro): 93 ± 3% | viability at 48 h, 1000 µM (in vitro): 78 ± 4% | viability at 100 µM (MOLT-4 cells; [5]): 35% | viability at 200 µM (MOLT-4 cells; [7]): 36% | viability at 48 h, 100 µM [3]: 103 ± 9%

NCCCNCCS [WR1065, reference compound]
viability at 48 h, 100 µM [1]: 3 ± 3% | viability at 48 h, 100 µM [2]: 2% | Decrease in cell viability of PBMCs (PBMCs; 10 μM (lowest tested concentration)): 43% | viability at 48 h, 10 µM (in vitro): 57 ± 39% | viability at 48 h, 20 µM (in vitro): 47 ± 34% | viability at 48 h, 50 µM (in vitro): 19 ± 17% | viability at 48 h, 100 µM (in vitro): 16 ± 14% | viability at 48 h, 200 µM (in vitro): 21 ± 8% | viability at 48 h, 500 µM (in vitro): 27 ± 9% | Radioprotective effect in MOLT-4 cells (in words) (MOLT-4 cells; 100 μM and 200 μM): did not exhibit distinct radioprotective effects | viability at 100 µM (MOLT-4 cells; [5]): 19% | viability at 200 µM (MOLT-4 cells; [7]): 9% | viability at 48 h, 100 µM [3]: 7 ± 4%
